Results: ChEMBL document CHEMBL3885861, “Open TG-GATES”

Organism: Rattus norvegicus
Assay: Open TG-GATES - Regimen: Daily Repeat
Format: toxicity, organism-based, Sprague-Dawley
Design: regimen Daily Repeat, gender Male, age 6 weeks
Conditions: in vivo, po, 100 mg/kg, route gavage, dose level High; for APTT / Bas / Eos / Fbg / Hb / Ht / Lym / MCH / MCHC / MCV / Mono / Neu / PT / Plat / RBC / Ret / WBC: tissue Blood; for KIDNEY_L / KIDNEY_R / KIDNEY_TOTAL: tissue Kidney; for LIVER: tissue Liver; for A/G / ALP / ALT / AST / BUN / CRE / Ca / Cl / DBIL / GLC / IP / K / LDH / Na / PL / RALB / TBIL / TC / TG / TP / gamma-GTP: tissue Plasma

`CN(C)CCN(Cc1cccs1)c1ccccn1` was tested, and the TERMINAL_BW (72 h, time 3 day) was 205.4 g, the APTT (72 h, time 3 day) was 20.1 s and the Bas (72 h, time 3 day) was 0%. It also gave an Eos (72 h, time 3 day) of 1%, a Fbg (72 h, time 3 day) of 285.6 mg/dL and a Hb (72 h, time 3 day) of 13 g/dL. It also gave a Ht (72 h, time 3 day) of 38.7%, a Lym (72 h, time 3 day) of 75.2% and an MCH (72 h, time 3 day) of 20.8 pg. For the same compound, the MCHC (72 h, time 3 day) was 33.7%, the MCV (72 h, time 3 day) was 61.8 fL and the Mono (72 h, time 3 day) was 2.2%. It also gave a Neu (72 h, time 3 day) of 20.8%, a PT (72 h, time 3 day) of 15.9 s and a Plat (72 h, time 3 day) of 132.3 x10_4/uL. It also gave an RBC (72 h, time 3 day) of 626.8 x10_4/ul, a Ret (72 h, time 3 day) of 4.7% and a WBC (72 h, time 3 day) of 84.8 x10_2/uL. For the same compound, the KIDNEY_L (72 h, time 3 day) was 0.9 g, the KIDNEY_R (72 h, time 3 day) was 1 g and the KIDNEY_TOTAL (72 h, time 3 day) was 1.9 g. The LIVER (72 h, time 3 day) was 10.6 g, the A/G (72 h, time 3 day) was 1.2 and the ALP (72 h, time 3 day) was 1934 IU/L. For the same compound, the ALT (72 h, time 3 day) was 61.2 IU/L, the AST (72 h, time 3 day) was 106.4 IU/L and the BUN (72 h, time 3 day) was 16.6 mg/dL. It also gave a CRE (72 h, time 3 day) of 0.2 mg/dL, a Ca (72 h, time 3 day) of 10.9 mg/dL and a Cl (72 h, time 3 day) of 107 meq/L. It also gave a DBIL (72 h, time 3 day) of 0.01 mg/dL, a GLC (72 h, time 3 day) of 160.2 mg/dL and an IP (72 h, time 3 day) of 7.6 mg/dL. The K (72 h, time 3 day) was 4.4 meq/L, the LDH (72 h, time 3 day) was 202.2 IU/L and the Na (72 h, time 3 day) was 142.2 meq/L. The PL (72 h, time 3 day) was 161.2 mg/dL, the RALB (72 h, time 3 day) was 2.8 g/dL and the TBIL (72 h, time 3 day) was 0.028 mg/dL. It also gave a TC (72 h, time 3 day) of 91.8 mg/dL, a TG (72 h, time 3 day) of 49 mg/dL and a TP (72 h, time 3 day) of 5.2 g/dL. For the same compound, the gamma-GTP (72 h, time 3 day) was 2 IU/L, the TERMINAL_BW ([…], time 7 day) was 222.8 g and the TERMINAL_BW ([…], time 14 day) was 237.7 g. It also gave a TERMINAL_BW ([…], time 28 day) of 237.4 g, an APTT ([…], time 7 day) of 18.6 s and a Bas ([…], time 7 day) of 0%. The Eos ([…], time 7 day) was 0.6%, the Fbg ([…], time 7 day) was 247 mg/dL and the Hb ([…], time 7 day) was 14.2 g/dL. For the same compound, the Ht ([…], time 7 day) was 42.3%, the Lym ([…], time 7 day) was 80.4% and the MCH ([…], time 7 day) was 20.5 pg. It also gave an MCHC ([…], time 7 day) of 33.5%, an MCV ([…], time 7 day) of 61.2 fL and a Mono ([…], time 7 day) of 2.4%. It also gave a Neu ([…], time 7 day) of 15.4%, a PT ([…], time 7 day) of 15.9 s and a Plat ([…], time 7 day) of 123.2 x10_4/uL. For the same compound, the RBC ([…], time 7 day) was 691.6 x10_4/ul, the Ret ([…], time 7 day) was 3.7% and the WBC ([…], time 7 day) was 124.5 x10_2/uL. The APTT ([…], time 14 day) was 21.1 s, the Bas ([…], time 14 day) was 0% and the Eos ([…], time 14 day) was 0.2%. For the same compound, the Fbg ([…], time 14 day) was 177.8 mg/dL, the Hb ([…], time 14 day) was 15.1 g/dL and the Ht ([…], time 14 day) was 44.1%. The Lym ([…], time 14 day) was 74%, the MCH ([…], time 14 day) was 19.5 pg and the MCHC ([…], time 14 day) was 34.3%. The MCV ([…], time 14 day) was 56.9 fL, the Mono ([…], time 14 day) was 3.2% and the Neu ([…], time 14 day) was 21.4%. For the same compound, the PT ([…], time 14 day) was 18.3 s, the Plat ([…], time 14 day) was 117.4 x10_4/uL and the RBC ([…], time 14 day) was 775 x10_4/ul. The Ret ([…], time 14 day) was 2.4%, the WBC ([…], time 14 day) was 140.8 x10_2/uL and the APTT ([…], time 28 day) was 24.5 s. The Bas ([…], time 28 day) was 0%, the Eos ([…], time 28 day) was 0.5% and the Fbg ([…], time 28 day) was 140.8 mg/dL. It also gave a Hb ([…], time 28 day) of 16.7 g/dL, a Ht ([…], time 28 day) of 48.9% and a Lym ([…], time 28 day) of 53.8%. The MCH ([…], time 28 day) was 18.1 pg, the MCHC ([…], time 28 day) was 34.1% and the MCV ([…], time 28 day) was 53 fL. The Mono ([…], time 28 day) was 5%, the Neu ([…], time 28 day) was 39.8% and the PT ([…], time 28 day) was 20.1 s. The Plat ([…], time 28 day) was 79.2 x10_4/uL, the RBC ([…], time 28 day) was 924.8 x10_4/ul and the Ret ([…], time 28 day) was 2.1%. The WBC ([…], time 28 day) was 178.3 x10_2/uL, the KIDNEY_L ([…], time 7 day) was 1 g and the KIDNEY_R ([…], time 7 day) was 1 g. The KIDNEY_TOTAL ([…], time 7 day) was 2 g, the KIDNEY_L ([…], time 14 day) was 1.1 g and the KIDNEY_R ([…], time 14 day) was 1.1 g. For the same compound, the KIDNEY_TOTAL ([…], time 14 day) was 2.1 g, the KIDNEY_L ([…], time 28 day) was 1.1 g and the KIDNEY_R ([…], time 28 day) was 1.1 g. The KIDNEY_TOTAL ([…], time 28 day) was 2.2 g, the LIVER ([…], time 7 day) was 11.6 g and the LIVER ([…], time 14 day) was 10.6 g. For the same compound, the LIVER ([…], time 28 day) was 9.7 g, the A/G ([…], time 7 day) was 1.1 and the ALP ([…], time 7 day) was 2330.2 IU/L. The ALT ([…], time 7 day) was 145.2 IU/L, the AST ([…], time 7 day) was 324.2 IU/L and the BUN ([…], time 7 day) was 19 mg/dL. It also gave a CRE ([…], time 7 day) of 0.2 mg/dL, a Ca ([…], time 7 day) of 10.4 mg/dL and a Cl ([…], time 7 day) of 107.6 meq/L. The DBIL ([…], time 7 day) was 0.094 mg/dL, the GLC ([…], time 7 day) was 152.2 mg/dL and the IP ([…], time 7 day) was 8.7 mg/dL. It also gave a K ([…], time 7 day) of 4.6 meq/L, an LDH ([…], time 7 day) of 230.6 IU/L and a Na ([…], time 7 day) of 144 meq/L. It also gave a PL ([…], time 7 day) of 179 mg/dL, an RALB ([…], time 7 day) of 2.7 g/dL and a TBIL ([…], time 7 day) of 0.1 mg/dL. For the same compound, the TC ([…], time 7 day) was 100 mg/dL, the TG ([…], time 7 day) was 30.2 mg/dL and the TP ([…], time 7 day) was 5.2 g/dL. The gamma-GTP ([…], time 7 day) was 7 IU/L, the A/G ([…], time 14 day) was 1.1 and the ALP ([…], time 14 day) was 2530.2 IU/L. For the same compound, the ALT ([…], time 14 day) was 69 IU/L, the AST ([…], time 14 day) was 237.2 IU/L and the BUN ([…], time 14 day) was 16.6 mg/dL. It also gave a CRE ([…], time 14 day) of 0.2 mg/dL, a Ca ([…], time 14 day) of 9.7 mg/dL and a Cl ([…], time 14 day) of 106.8 meq/L. For the same compound, the DBIL ([…], time 14 day) was 0.3 mg/dL, the GLC ([…], time 14 day) was 135.6 mg/dL and the IP ([…], time 14 day) was 8.2 mg/dL. It also gave a K ([…], time 14 day) of 4.1 meq/L, an LDH ([…], time 14 day) of 250.8 IU/L and a Na ([…], time 14 day) of 141.8 meq/L. It also gave a PL ([…], time 14 day) of 126.4 mg/dL, an RALB ([…], time 14 day) of 2.5 g/dL and a TBIL ([…], time 14 day) of 0.3 mg/dL. It also gave a TC ([…], time 14 day) of 57.4 mg/dL, a TG ([…], time 14 day) of 22 mg/dL and a TP ([…], time 14 day) of 4.8 g/dL. For the same compound, the gamma-GTP ([…], time 14 day) was 6.6 IU/L, the A/G ([…], time 28 day) was 1 and the ALP ([…], time 28 day) was 1953.8 IU/L. It also gave an ALT ([…], time 28 day) of 94 IU/L, an AST ([…], time 28 day) of 418 IU/L and a BUN ([…], time 28 day) of 13.5 mg/dL. For the same compound, the CRE ([…], time 28 day) was 0.2 mg/dL, the Ca ([…], time 28 day) was 9.1 mg/dL and the Cl ([…], time 28 day) was 107.8 meq/L. The DBIL ([…], time 28 day) was 1 mg/dL, the GLC ([…], time 28 day) was 116.5 mg/dL and the IP ([…], time 28 day) was 7.6 mg/dL. It also gave a K ([…], time 28 day) of 3.9 meq/L, an LDH ([…], time 28 day) of 377.5 IU/L and a Na ([…], time 28 day) of 140.5 meq/L. The PL ([…], time 28 day) was 96.5 mg/dL, the RALB ([…], time 28 day) was 2 g/dL and the TBIL ([…], time 28 day) was 1 mg/dL. For the same compound, the TC ([…], time 28 day) was 38 mg/dL, the TG ([…], time 28 day) was 29.8 mg/dL and the TP ([…], time 28 day) was 4 g/dL. The gamma-GTP ([…], time 28 day) was 15.2 IU/L.
